From patent US6935334B2, “Enhancing therapeutic effectiveness of nitric oxide inhalation” (The General Hospital Corporation, priority 2000, dated 2005) come the findings set out here.

The test system of assay [1] is hypoxic pulmonary vasoconstriction (HPV) in mice. Kind of assay: Change in incremental left pulmonary vascular resistance (ΔiLPV) in response to LMBO, a measure of HPV (Example 2, FIG. 8). In kind it is in vivo, mouse. On the procedure:
We performed experiments on the change in incremental left pulmonary vascular resistance, ΔiLPV, in response to LMBO—a measure of HPV. HPV was impaired in wild-type mice challenged with endotoxin (FIG. 8). HPV was preserved in endotoxin-challenged mice treated with N-acetylcysteine at 500 mg/kg, but not 150 mg/kg (intraperitoneal administration simultaneously with endotoxin).

Assay [2] has as its system isolated-perfused mouse lungs preconstricted with U46619. Kind of assay: Pulmonary vasodilator response to NO inhalation in isolated, perfused and ventilated mouse lungs preconstricted with U46619. In kind it is in vivo. To be noted: for impairment of responsiveness to NO inhalation: wild-type mice treated with endotoxin, scavengers of reactive oxygen and nitrogen species; for vasodilator response to NO inhalation, compared to that in control mice: endotoxin-challenged (LPS 50 mg/kg i.p.) wild-type mice treated with NAC 150 mg/kg i.p. immediately and 3.5 hours later, lungs isolated 16 hours after endotoxin. On the procedure: Isolated, Perfused, and Ventilated Mouse Lung Model Mice were killed by intraperitoneal injection of pentobarbital sodium (200 mg/kg body weight) and placed in a 37° C. water-jacketed chamber (Isolated Perfused Lung Size 1 Type 839; Hugo-Sachs Elektronik, March-Hugstetten, Germany). The trachea was isolated and intubated, and the lungs were ventilated with 21% O2, 6% CO2 and 73% N2 using a volume-controlled ventilator (model 687; Harvard Apparatus, South Natick, Mass.) at a ventilatory rate of 85 breaths/min and 2 cm H2O end-expiratory pressure. The tidal volume was adjusted to provide a peak inspiratory pressure of 10 cm H2O throughout each study. The lungs were exposed via a midline sternotomy, and a ligataure was placaed around the aorticopulmonary outflow tract. After injection of 10 IU heparin into the right ventricle, the pulmonary artery was cannulated with a stainless steel cannula (1 mm ID) via the right ventricle. The pulmonary venous effluent was drained via a stainless steel cannula (1 mm ID) placed through the apex of the left ventricle across the mitral valve and into the left atrium. Left atrial pressure was maintained at 2 mmHg. Lungs were perfused at a constant flow (50 ml. kg body weight^−1. min^−1; Ismatec Reglo-Analogue roller pump; Laboratoriumstechnik GmbH, Wertheim-Mondfeld, Germany) with a non-recirculating system at 37° C. The perfusate used was Hanks' Balanced Salt Solution (GibcoBRL, Grand Island, N.Y.) containing 1.26 mM CaCl2, 5.33 mM KCl, 0.44 mM KH2PO4, 0.50 mM MgCl2, 0.41 mM MgSO4, 138.0 mM NaCl, 4.0 mM NaHCO3, 0.3 mM Na2HPO4, and 5.6 mM glucose. Bovine serum albumin, 5%, and dextran, 5% (both from Sigma Chemical Co., St. Louis, Mo.), were added to the perfusate to prevent pulmonary edema, in the isolated, perfused, and ventilated rat lung, essentially as described in Holzmann et al., 1996, Am. J. Physiol. 271:L981-L986. Indomethacin, […] (Sigma Chemical Co.), and 1 mM L-NAME (Sigma Chemical Co.) were added to the perfusate to inhibit endogenous prostaglandin and NO synthesis, respectively. Sodium bicarbonate was added to adjust the perfusate pH to 7.34-7.43.
Pulmonary artery pressure (PAP) and left atrial pressure were measured via saline-filled membrane pressure transducers (Argon, Athens, Tex.) connected to a side port of the inflow and outflow cannulae, respectively. Airway pressure (Paw) was measured using a differential pressure transducer (model MP-45-32-871; Validyne Engineering Corp., Northridge, Calif.) connected to the inspiratory limb just before the Y piece. Pressure transducers were connected to a biomedical amplifier (Hewlett Packard 7754B, Andover, Mass.), and data were recorded at 150 Hz on a personal computer using an analog-to-digital interface with a data acquisition system (DI-220; Dataq Instruments, Akron, Ohio). The system was calibrated before each experiment.
For NO inhalation, NO gas (800 or 80 ppm NO in nitrogen, Airco, Murray Hill, N.J.) was blended (Oxygen Blender; Bird Corporation, Palm Springs, Calif.) with oxygen, carbon dioxide, and nitrogen to achieve a final concentration of 21% O2, 6% CO2, and the desired NO concentration. NO and higher oxidative states of NO (NOx; CLD 700 AL; Eco Physics, Dürmten, Switzerland), oxygen (Hudson Ventronics Ddivision, Temecula, Calif.), and carbon dioxide (Datex CO2 monitor; Puritan-Bennett Corpration, Los Angeles, Calif.) concentrations were monitored continuously.
Pulmonary Vascular Response to NO inhalation after Lipopolysaccharide Challenge Wild-type mice and NOS2-deficient mice were injected intraperitoneally with 50 mg/kg body weight Escherichia coli 0111:B4 lipopolysaccharide (LPS; Difco Laboratories, Detroit, Mich.) dissolved in saline 16 h before isolated lung perfusion. This time point was chosen based on previous studies in rats (Holzmann et al., 1996, Am. J. Physiol. 271:L981-L986). Untreated wild-type and NOS2-deficient mice served as controls. […]

In assay [3] the test system is hypoxic pulmonary vasoconstriction (HPV) in mice. Description: Percent increase in left pulmonary vascular resistance (LPVR) after LMBO, one-lung hypoxia model (Example 3, FIG. 13). In kind it is in vivo, mouse. Particulars: endotoxin-challenged wild-type mice. On the procedure:
Wild-type (SV129B6/F1) mice and 5LO-deficient mice were anesthetized and studied at thoracotomy. Left pulmonary artery flow (QLPA) and pulmonary (PPA) and systemic (PSA) artery pressures were measured continuously.
HPV was assessed as the percent increase in left pulmonary vascular resistance (the slope of the P/Q-relationship, LPVR) after left main bronchus occlusion (LMBO). LMBO increased LPVR by 99±13% in 5LO deficient mice, and by 100±11% in wild-type mice.

In assay [4] the test system is pulmonary vasculature of wild-type mice. Description: Pulmonary vasoconstrictor response to intravenous angiotensin II. The class given is in vivo, mouse. To be noted: for PVR: 5.0 μg/kg per minute angiotensin II. On the procedure:
Group 6: pulmonary vascular response to increasing doses of intravenous angiotensin II. SV129/B6F1 wild-type mice treated with endotoxin (n=5) or with saline (n=3) were studied 22 hours after the challenge.
Infusion of angiotensin II. Increasing doses of angiotensin II (0.05, 0.5, and 5.0 ng/g bw per minute) dissolved in sterile normal saline were infused via the central venous catheter using an infusion pump (Pump 11; Harvard Apparatus Co., South Natick, Mass.). PLA, PPA, PSA, and QLTAF were continuously measured.

In the case of `[Cl-].[Mn+3].[O-]c1ccccc1C=NCCN=Cc1ccccc1[O-]` [EUK-8], in assay [1] (endotoxin-challenged mice treated with EUK-8), the “HPV (ΔiLPV in response to LMBO)” value is given as “completely preserved”. The “impairment of responsiveness to NO inhalation” value (“impairment … to NO inhalation” for short) in assay [2] was “prevented impairment of responsiveness to NO inhalation”.

As to `CN(C)C(=O)CCSC(SCCC(=O)O)c1cccc(/C=C/c2ccc3ccc(Cl)cc3n2)c1` (stereo not drawn) [MK571], the “HPV (LMBO-induced increase in left PVR)” value in assay [3] was “preserved”.

Take `CC(C)c1ccc2c(c1)c(SC(C)(C)C)c(CC(C)(C)C(=O)O)n2Cc1ccc(Cl)cc1` [MK886]: in assay [3], the “HPV (LMBO-induced increase in left PVR)” value was “preserved”.

With `CC(=O)N[C@@H](CS)C(=O)O` [N-acetylcysteine], the “HPV (ΔiLPV in response to LMBO)” value in assay [1] (endotoxin-challenged mice, 150 mg/kg intraperitoneally simultaneously with endotoxin) is given as “not”; in assay [1] (endotoxin-challenged mice, 500 mg/kg intraperitoneally simultaneously with endotoxin) it was “preserved”. In addition, the HPV entry in assay [1] (endotoxin-challenged wild-type mice treated with N-acetylcysteine and exposed to 20 ppm NO for 22 hours) is “not impaired”. Moreover, the “vasodilator response to NO inhalation, compared to that in control mice” value in assay [2] (0.4 ppm NO) is 75±14%; in assay [2] (4.0 ppm NO), 103±15%; in assay [2] (40 ppm NO), 91±7%. Moreover, in assay [2] (endotoxin-challenged, NAC-treated mice exposed to 20 ppm NO for 16 hours), the “responsiveness to NO inhalation after prolonged NO exposure” value was “preserved”. The “lipopolysaccharide-induced attenuation of vasoreactivity to NO inhalation (FIG. 5)” value in assay [2] (two doses of 150 mg/kg i.p., simultaneously with lipopolysaccharide and 3.5 hours later) is on record as “completely protected”. Besides, the “impairment … to NO inhalation” value in assay [2] was “prevented impairment of responsiveness to NO inhalation”.

In the case of `CNC(=O)NC` [dimethylurea], the “impairment … to NO inhalation” value in assay [2] is reported as “prevented impairment of responsiveness to NO inhalation”.

With “angiotensin II: vasoconstrictor infused intravenously to test pulmonary vascular contractile function (DRVYIHPF; Angiotensin-2; UniProt P01019 25-32, looked up)”, the PVR came to 174±40 mmHg·min·g·mL^−1 in assay [4] (endotoxin-challenged wild-type mice, baseline 55±11) and 184±25 mmHg·min·g·mL−1 in assay [4] (saline-treated wild-type mice without endotoxin, baseline 74±24). For the same molecule, the “PLA in response to angiotensin II infusion” value in assay [4] (saline-treated and endotoxin-treated wild-type mice (either group)) is “did not change”.

B1: catalase: scavenger of reactive oxygen and nitrogen species (anti-ROS agent) (protein, UniProt P04040 2-527, looked up)
Catalase: ADSRDPASDQMQHWKEQRAAQKADVLTTGAGNPVGDKLNVITVGPRGPLLVQDVVFTDEMAHFDRERIPERVVHAKGAGAFGYFEVTHDITKYSKAKVFEHIGKKTPIAVRFSTVAGESGSADTVRDPRGFAVKFYTEDGNWDLVGNNTPIFFIRDPILFPSFIHSQKRNPQTHLKDPDMVWDFWSLRPESLHQVSFLFSDRGIPDGHRHMNGYGSHTFKLVNANGEAVYCKFHYKTDQGIKNLSVEDAARLSQEDPDYGIRDLFNAIATGKYPSWTFYIQVMTFNQAETFPFNPFDLTKVWPHKDYPLIPVGKLVLNRNPVNYFAEVEQIAFDPSNMPPGIEASPDKMLQGRLFAYPDTHRHRLGPNYLHIPVNCPYRARVANYQRDGPMCMQDNQGGAPNYYPNSFGAPEQQPSALEHSIQYSGEVRRFNTANDDNVTQVRAFYVNVLNEEQRKRLCENIAGHLKDAQIFIQKKAVKNFTEVHPDYGSHIQALLDKYNAEKPKNAIHTFVQSGSHLAAREKANL
For the molecule B1, the “impairment … to NO inhalation” value in assay [2] is given as “prevented impairment of responsiveness to NO inhalation”.
